One molecule from ChEMBL document CHEMBL5154919, “New ZW4864 Derivatives as Small-Molecule Inhibitors for the β-Catenin/BCL9 Protein-Protein Interaction” (ACS Med Chem Lett, 2022) can be followed below.

As usually defined, the IC50 is the point on the concentration scale where inhibition reaches its midpoint. Broadly, the Ki is a measure of affinity in units of concentration, obtained from inhibition or displacement. The term half-life denotes the time needed for the level to fall by half in the phase considered. Broadly, the inhibition is how much of the control response was suppressed.

Data set [1] concerns the target T1, beta-catenin-B-cell lymphoma 9 protein complex (Homo sapiens, UniProt P35222).
T1 sequence (P35222 whole entry): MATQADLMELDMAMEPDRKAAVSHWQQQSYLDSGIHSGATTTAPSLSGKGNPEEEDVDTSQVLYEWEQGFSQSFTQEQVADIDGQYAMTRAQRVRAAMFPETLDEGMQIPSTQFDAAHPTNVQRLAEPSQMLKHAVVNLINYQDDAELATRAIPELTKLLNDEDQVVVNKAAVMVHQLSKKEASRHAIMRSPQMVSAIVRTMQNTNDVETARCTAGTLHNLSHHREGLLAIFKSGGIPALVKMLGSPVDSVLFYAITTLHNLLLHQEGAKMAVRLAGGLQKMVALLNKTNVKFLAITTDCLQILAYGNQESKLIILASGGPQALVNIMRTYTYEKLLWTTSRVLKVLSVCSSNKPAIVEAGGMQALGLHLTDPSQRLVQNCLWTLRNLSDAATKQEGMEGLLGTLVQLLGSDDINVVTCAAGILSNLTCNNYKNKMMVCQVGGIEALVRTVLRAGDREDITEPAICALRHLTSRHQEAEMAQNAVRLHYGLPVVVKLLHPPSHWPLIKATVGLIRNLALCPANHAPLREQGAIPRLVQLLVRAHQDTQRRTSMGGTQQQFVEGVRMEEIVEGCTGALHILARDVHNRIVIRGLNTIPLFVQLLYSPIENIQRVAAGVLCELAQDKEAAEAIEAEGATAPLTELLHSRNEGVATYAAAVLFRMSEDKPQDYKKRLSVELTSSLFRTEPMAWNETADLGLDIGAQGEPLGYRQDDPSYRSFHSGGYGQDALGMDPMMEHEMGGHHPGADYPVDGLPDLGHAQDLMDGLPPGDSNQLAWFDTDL
T1 sequence (O00512 whole entry): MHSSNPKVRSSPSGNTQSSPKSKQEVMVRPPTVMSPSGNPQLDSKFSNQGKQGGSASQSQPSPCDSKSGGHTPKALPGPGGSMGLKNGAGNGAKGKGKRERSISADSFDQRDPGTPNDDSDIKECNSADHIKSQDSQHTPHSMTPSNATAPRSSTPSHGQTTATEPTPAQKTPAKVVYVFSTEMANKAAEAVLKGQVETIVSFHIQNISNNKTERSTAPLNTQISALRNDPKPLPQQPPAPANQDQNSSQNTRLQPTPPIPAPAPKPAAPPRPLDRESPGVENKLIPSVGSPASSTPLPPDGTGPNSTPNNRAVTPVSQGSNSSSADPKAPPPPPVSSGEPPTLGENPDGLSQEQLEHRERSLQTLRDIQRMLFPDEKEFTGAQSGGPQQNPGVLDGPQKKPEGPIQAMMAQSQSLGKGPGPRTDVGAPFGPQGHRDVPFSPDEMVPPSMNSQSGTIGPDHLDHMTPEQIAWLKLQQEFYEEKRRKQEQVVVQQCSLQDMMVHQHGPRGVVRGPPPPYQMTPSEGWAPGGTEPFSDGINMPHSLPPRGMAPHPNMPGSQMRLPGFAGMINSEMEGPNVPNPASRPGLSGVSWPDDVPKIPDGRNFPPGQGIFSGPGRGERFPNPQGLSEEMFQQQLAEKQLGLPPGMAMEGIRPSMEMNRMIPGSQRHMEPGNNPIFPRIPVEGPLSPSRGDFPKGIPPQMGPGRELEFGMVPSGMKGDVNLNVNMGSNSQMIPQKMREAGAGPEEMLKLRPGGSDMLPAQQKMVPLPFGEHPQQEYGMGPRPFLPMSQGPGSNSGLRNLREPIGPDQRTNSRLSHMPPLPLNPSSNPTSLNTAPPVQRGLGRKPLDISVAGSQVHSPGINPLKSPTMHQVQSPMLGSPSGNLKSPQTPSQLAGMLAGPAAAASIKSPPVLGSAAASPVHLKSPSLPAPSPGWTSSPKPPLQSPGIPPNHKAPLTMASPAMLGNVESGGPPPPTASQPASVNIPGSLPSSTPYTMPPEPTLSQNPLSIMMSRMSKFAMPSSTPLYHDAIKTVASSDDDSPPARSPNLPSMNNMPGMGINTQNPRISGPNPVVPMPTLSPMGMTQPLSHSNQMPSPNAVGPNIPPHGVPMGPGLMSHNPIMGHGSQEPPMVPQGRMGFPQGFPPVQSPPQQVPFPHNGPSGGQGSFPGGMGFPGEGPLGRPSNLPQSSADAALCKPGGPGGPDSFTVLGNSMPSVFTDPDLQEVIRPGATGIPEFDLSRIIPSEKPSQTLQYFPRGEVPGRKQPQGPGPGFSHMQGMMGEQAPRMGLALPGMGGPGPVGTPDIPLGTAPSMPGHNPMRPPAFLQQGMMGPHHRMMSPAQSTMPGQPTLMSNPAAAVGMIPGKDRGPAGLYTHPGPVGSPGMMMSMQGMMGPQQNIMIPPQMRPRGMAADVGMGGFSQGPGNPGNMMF
Nature of the data set: Inhibition of full length beta-catenin (1 to 781 residues) (unknown origin) expressed in Escherichia coli BL21 (DE3)-N-terminal biotinylated human BCL9 (350 to 375 residues) protein-protein interaction incubated for 1 hr by Alphascreen assay. A general note: Bead proximity is the source of the signal in Alpha formats.

For another data set, the system named is HCT-116. The data set is described as follows: Antiproliferative activity against human HCT-116 cells assessed as inhibition of cell growth measured by MTS method. It counts as functional, cell-based.
Data set [2] can be described thus: Metabolic stability in human Hepatocyte assessed as half life. The class given is ADME, cell-based. The following applies: hepatocytes.
The target of another data set is T2, CYP1A2 (Homo sapiens, UniProt P05177).
T2 sequence (P05177 whole entry): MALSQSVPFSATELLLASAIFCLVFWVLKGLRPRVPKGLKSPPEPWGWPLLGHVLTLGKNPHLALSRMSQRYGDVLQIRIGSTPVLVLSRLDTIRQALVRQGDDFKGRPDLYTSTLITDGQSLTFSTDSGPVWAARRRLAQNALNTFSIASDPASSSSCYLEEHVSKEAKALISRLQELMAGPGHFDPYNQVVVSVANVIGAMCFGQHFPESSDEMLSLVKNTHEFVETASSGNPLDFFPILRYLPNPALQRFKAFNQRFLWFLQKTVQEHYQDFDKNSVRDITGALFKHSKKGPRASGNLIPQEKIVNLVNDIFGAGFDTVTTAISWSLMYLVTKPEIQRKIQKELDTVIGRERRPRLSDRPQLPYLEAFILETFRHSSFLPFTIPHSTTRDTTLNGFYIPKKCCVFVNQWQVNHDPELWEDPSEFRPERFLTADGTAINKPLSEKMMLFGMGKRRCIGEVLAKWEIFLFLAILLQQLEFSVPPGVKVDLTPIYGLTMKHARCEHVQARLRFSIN
The data set is described as follows: Inhibition of CYP1A2 in human liver microsomes using phenacetin at 10 uM in presence of NADPH incubated for 10 mins. The class given is ADME, Microsome. The following applies: probe phenacetin.

Data set [3] can be described thus: Effect of Wnt/beta-Catenin signaling pathway in human SW480 cells assessed as reduction in Cyclin D1 level at 5 uM incubated for 24 hrs by qRT-PCR analysis relative to control. The class given is functional. To be noted: SW480, 24 h. For orientation: Quantitative PCR measures a nucleic acid by following its amplification.
Data set [4] can be described thus: Effect of Wnt/beta-Catenin signaling pathway in human SW480 cells assessed as reduction in Cyclin D1 level at 20 uM incubated for 24 hrs by qRT-PCR analysis relative to control. The following applies: SW480, 24 h. The class given is functional.

For the molecule `CC(C)(Oc1cccc(N2CCC[C@@H](C(=O)N(Cc3ccc(-c4cnc5[nH]ccc5c4)cc3)C3CC3)C2)c1)C(=O)N1CCNCC1.Cl`, in data set [1], the IC50 was determined as 3.4 µM and the Ki turned out to be 2700 nM. Also, the IC50 in the data set with HCT-116 was 9.5 µM. For the same molecule, the half-life in data set [2] amounted to 25.2 min. In addition, at CYP1A2, the inhibition at 10 min, 10 µM was 31%. Further, the level, % of control at 5 µM in data set [3] came out at 89%. Moreover, the level, % of control at 20 µM in data set [4] was 29%.
